Laboratory results as given in ChEMBL document CHEMBL1128849, “Synthesis and antibacterial activity of men 10700, a new penem antibiotic” (1995).
In brackets after ≈: the same amount, converted by molar mass.

How the values were obtained:
Klebsiella pneumoniae = assay: In vitro antibacterial activity against Klebsiella pneumoniae; assay type: functional
Staphylococcus aureus [1] = assay: In vitro antibacterial activity against Staphylococcus aureus MR; assay type: functional
Staphylococcus aureus [2] = assay: In vitro antibacterial activity against Staphylococcus aureus MR13; assay type: functional
Streptococcus pyogenes = assay: In vitro antibacterial activity against Streptococcus pyogenes A; assay type: functional
Providencia rettgeri = assay: In vitro antibacterial activity against Providencia rettgerii; assay type: functional
Pseudomonas aeruginosa [3] = assay: In vitro antibacterial activity against Pseudomonas aeruginosa; assay type: functional
Clostridium perfringens = assay: In vitro antibacterial activity against Clostridium perfringens; assay type: functional
Escherichia coli [4] = assay: In vitro antibacterial activity against Escherichia. coli L; assay type: functional
Escherichia coli [5] = assay: In vitro antibacterial activity against Escherichia coli; assay type: functional
Staphylococcus aureus [6] = assay: In vitro antibacterial activity against Staphylococcus aureus ATCC 25923; assay type: functional
[7] = test system: Staphylococcus epidermidis; assay: In vitro antibacterial activity against Staphylococcus epidermidis; assay type: functional
Moraxella catarrhalis = assay: In vitro antibacterial activity against Branhamella catarrhalis; assay type: functional
Klebsiella aerogenes = assay: In vitro antibacterial activity against Enterobacter aerogenes; assay type: functional
Streptococcus agalactiae = assay: In vitro antibacterial activity against Streptococcus agalactiae B; assay type: functional
Staphylococcus aureus [8] = assay: In vitro antibacterial activity against Staphylococcus aureus ATCC 29213; assay type: functional
Citrobacter freundii = assay: In vitro antibacterial activity against Citrobacter freundii; assay type: functional
Pseudomonas aeruginosa [9] = assay: In vitro antibacterial activity against Pseudomonas aeruginosa G242; assay type: functional
Morganella morganii = assay: In vitro antibacterial activity against Morganella morganii; assay type: functional
Bacteroides fragilis = assay: In vitro antibacterial activity against Bacteroides fragilis; assay type: functional
Yersinia sp. = assay: In vitro antibacterial activity against Yersinia species; assay type: functional, yersinia spp; conditions: Yersinia sp. (in: enterobacteria)
Providencia stuartii = assay: In vitro antibacterial activity against Providencia stuartii; assay type: functional
Escherichia coli [10] = assay: In vitro antibacterial activity against Escherichia. coli TEM1; assay type: functional
Haemophilus influenzae = assay: In vitro antibacterial activity against Haemophilus influenzae; assay type: functional
Pseudomonas aeruginosa [11] = assay: In vitro antibacterial activity against Pseudomonas aeruginosa VR5; assay type: functional
Enterococcus faecalis [12] = assay: In vitro antibacterial activity against Enterococcus faecalis ATCC 29212; assay type: functional
Listeria monocytogenes = assay: In vitro antibacterial activity against Listeria monocytogenes; assay type: functional
Streptococcus pneumoniae = assay: In vitro antibacterial activity against Streptococcus pneumoniae; assay type: functional
Staphylococcus aureus [13] = assay: In vitro antibacterial activity against Staphylococcus aureus MR09; assay type: functional
Enterococcus faecium = assay: In vitro antibacterial activity against Enterococcus faecium; assay type: functional
Staphylococcus aureus [14] = assay: In vitro antibacterial activity against Staphylococcus aureus MS; assay type: functional
Escherichia coli [15] = assay: In vitro antibacterial activity against Escherichia. coli SHV; assay type: functional
Pseudomonas aeruginosa [16] = assay: In vitro antibacterial activity against Pseudomonas aeruginosa ATCC 27853; assay type: functional
Proteus mirabilis = assay: In vitro antibacterial activity against Proteus mirabilis; assay type: functional
Escherichia coli [17] = assay: In vitro antibacterial activity against Escherichia. coli TEM2; assay type: functional
[18] = test system: Acinetobacter calcoaceticus subsp. anitratus; assay: In vitro antibacterial activity against Acinetobacter anitratus; assay type: functional
Aeromonas sp. = assay: In vitro antibacterial activity against Aeromonas species.; assay type: functional
[19] = test system: Stenotrophomonas maltophilia; assay: In vitro antibacterial activity against Xanthomonas maltophilia; assay type: functional
Enterococcus faecalis [20] = assay: In vitro antibacterial activity against Enterococcus faecalis; assay type: functional
Escherichia coli [21] = assay: In vitro antibacterial activity against Escherichia. coli ATCC 25922; assay type: functional
Proteus vulgaris = assay: In vitro antibacterial activity against Proteus vulgaris; assay type: functional
Escherichia coli [22] = assay: In vitro antibacterial activity against Escherichia. coli DC2; assay type: functional

`CC1(C)S[C@@H]2[C@H](NC(=O)[C@H](N)c3ccccc3)C(=O)N2[C@H]1C(=O)O.CC1(C)[C@H](C(=O)O)N2C(=O)C[C@H]2S1(=O)=O` was tested, and the MIC90 (Klebsiella pneumoniae) was 16 µg/mL, the MIC90 (Staphylococcus aureus [1]) was 32 µg/mL and the MIC (Staphylococcus aureus [2]) was 0.12 µg/mL. For the same compound, the MIC90 (Streptococcus pyogenes) was 0.03 µg/mL, the MIC90 (Providencia rettgeri) was 32 µg/mL and the MIC90 (Pseudomonas aeruginosa [3]) was greater than 64 µg/mL. For the same compound, the MIC90 (Clostridium perfringens) was 0.12 µg/mL, the MIC (Escherichia coli [4]) was 8 µg/mL and the MIC90 (Escherichia coli [5]) was 8 µg/mL. For the same compound, the MIC (Staphylococcus aureus [6]) was 0.03 µg/mL, the MIC90 [7] was 4 µg/mL and the MIC90 (Moraxella catarrhalis) was 0.5 µg/mL. For the same compound, the MIC90 (Klebsiella aerogenes) was greater than 64 µg/mL, the MIC90 (Streptococcus agalactiae) was 0.06 µg/mL and the MIC (Staphylococcus aureus [8]) was 0.25 µg/mL. It also gave an MIC90 (Citrobacter freundii) greater than 64 µg/mL, an MIC (Pseudomonas aeruginosa [9]) greater than 32 µg/mL and an MIC90 (Morganella morganii) of 16 µg/mL. For the same compound, the MIC90 (Bacteroides fragilis) was 4 µg/mL, the MIC90 (Yersinia sp.) was 32 µg/mL and the MIC90 (Providencia stuartii) was 64 µg/mL. It also gave an MIC (Escherichia coli [10]) greater than 32 µg/mL, an MIC90 (Haemophilus influenzae) of 1 µg/mL and an MIC (Pseudomonas aeruginosa [11]) of 0.12 µg/mL. The MIC (Enterococcus faecalis [12]) was 1 µg/mL, the MIC90 (Listeria monocytogenes) was 0.5 µg/mL and the MIC90 (Streptococcus pneumoniae) was 0.03 µg/mL. The MIC (Staphylococcus aureus [13]) was 4 µg/mL, the MIC90 (Enterococcus faecium) was greater than 64 µg/mL and the MIC90 (Staphylococcus aureus [14]) was 1 µg/mL. For the same compound, the MIC (Escherichia coli [15]) was greater than 32 µg/mL, the MIC (Pseudomonas aeruginosa [16]) was 32 µg/mL and the MIC90 (Proteus mirabilis) was 32 µg/mL. For the same compound, the MIC (Escherichia coli [17]) was 8 µg/mL, the MIC90 [18] was 32 µg/mL and the MIC90 (Aeromonas sp.) was greater than 32 µg/mL. The MIC90 [19] was greater than 64 µg/mL, the MIC90 (Enterococcus faecalis [20]) was 2 µg/mL and the MIC (Escherichia coli [21]) was 8 µg/mL. It also gave an MIC90 (Proteus vulgaris) of 8 µg/mL.

With `CC1(C)S[C@@H]2[C@H](NC(=O)[C@H](N)c3ccc(O)cc3)C(=O)N2[C@H]1C(=O)O` [AMOXICILLIN] the MIC90 (Klebsiella pneumoniae) was greater than 64 µg/mL, the MIC90 (Staphylococcus aureus [1]) was greater than 32 µg/mL and the MIC90 (Streptococcus pyogenes) was 0.015 µg/mL (≈ 0.041 µM). For the same compound, the MIC90 (Clostridium perfringens) was 0.06 µg/mL (≈ 0.164 µM), the MIC90 [7] was 4 µg/mL (≈ 10.9 µM) and the MIC90 (Moraxella catarrhalis) was 2 µg/mL (≈ 5.47 µM). For the same compound, the MIC90 (Streptococcus agalactiae) was 0.06 µg/mL (≈ 0.164 µM), the MIC90 (Bacteroides fragilis) was 32 µg/mL (≈ 87.6 µM) and the MIC90 (Yersinia sp.) was greater than 64 µg/mL. For the same compound, the MIC90 (Haemophilus influenzae) was 1 µg/mL (≈ 2.74 µM), the MIC90 (Listeria monocytogenes) was 0.5 µg/mL (≈ 1.37 µM) and the MIC90 (Streptococcus pneumoniae) was 0.015 µg/mL (≈ 0.041 µM). It also gave an MIC90 (Enterococcus faecium) of 32 µg/mL (≈ 87.6 µM), an MIC90 (Staphylococcus aureus [14]) of 1 µg/mL (≈ 2.74 µM) and an MIC90 (Aeromonas sp.) greater than 32 µg/mL. It also gave an MIC90 (Enterococcus faecalis [20]) of 0.5 µg/mL (≈ 1.37 µM).

`C[C@@H](O)[C@H]1C(=O)N2C(C(=O)O)=C(CSC(=S)N(C)CC(N)=O)SC12` (stereo partly specified) was tested, and the MIC (Staphylococcus aureus [2]) was 0.03 µg/mL (≈ 0.0766 µM), the MIC (Escherichia coli [4]) was 16 µg/mL (≈ 40.9 µM) and the MIC (Staphylococcus aureus [6]) was 0.12 µg/mL (≈ 0.307 µM). It also gave an MIC (Staphylococcus aureus [8]) of 0.12 µg/mL (≈ 0.307 µM), an MIC (Pseudomonas aeruginosa [9]) of 8 µg/mL (≈ 20.4 µM) and an MIC (Escherichia coli [22]) of 0.5 µg/mL (≈ 1.28 µM). The MIC (Escherichia coli [10]) was 8 µg/mL (≈ 20.4 µM), the MIC (Pseudomonas aeruginosa [11]) was 4 µg/mL (≈ 10.2 µM) and the MIC (Enterococcus faecalis [12]) was 8 µg/mL (≈ 20.4 µM). It also gave an MIC (Staphylococcus aureus [13]) of 2 µg/mL (≈ 5.11 µM), an MIC (Escherichia coli [15]) of 16 µg/mL (≈ 40.9 µM) and an MIC (Pseudomonas aeruginosa [16]) greater than 32 µg/mL. The MIC (Escherichia coli [17]) was 8 µg/mL (≈ 20.4 µM) and the MIC (Escherichia coli [21]) was 8 µg/mL (≈ 20.4 µM).

`C[C@@H](O)[C@H]1C(=O)N2C(C(=O)O)=C(CN(C)CC(N)=O)SC12` (stereo partly specified) showed an MIC90 (Klebsiella pneumoniae) of 0.5 µg/mL (≈ 1.59 µM), an MIC90 (Staphylococcus aureus [1]) of 4 µg/mL (≈ 12.7 µM) and an MIC (Staphylococcus aureus [2]) of 0.06 µg/mL (≈ 0.19 µM). The MIC90 (Streptococcus pyogenes) was 0.06 µg/mL (≈ 0.19 µM), the MIC90 (Providencia rettgeri) was 2 µg/mL (≈ 6.34 µM) and the MIC90 (Pseudomonas aeruginosa [3]) was greater than 64 µg/mL. It also gave an MIC90 (Clostridium perfringens) of 0.5 µg/mL (≈ 1.59 µM), an MIC (Escherichia coli [4]) of 0.25 µg/mL (≈ 0.793 µM) and an MIC90 (Escherichia coli [5]) of 0.25 µg/mL (≈ 0.793 µM). For the same compound, the MIC (Staphylococcus aureus [6]) was less than 0.03 µg/mL, the MIC90 [7] was 0.015 µg/mL (≈ 0.0476 µM) and the MIC90 (Moraxella catarrhalis) was 0.25 µg/mL (≈ 0.793 µM). The MIC90 (Klebsiella aerogenes) was 2 µg/mL (≈ 6.34 µM), the MIC90 (Streptococcus agalactiae) was 0.06 µg/mL (≈ 0.19 µM) and the MIC (Staphylococcus aureus [8]) was 0.06 µg/mL (≈ 0.19 µM). For the same compound, the MIC90 (Citrobacter freundii) was 1 µg/mL (≈ 3.17 µM), the MIC (Pseudomonas aeruginosa [9]) was 4 µg/mL (≈ 12.7 µM) and the MIC90 (Morganella morganii) was 2 µg/mL (≈ 6.34 µM). For the same compound, the MIC (Escherichia coli [22]) was 0.25 µg/mL (≈ 0.793 µM), the MIC90 (Bacteroides fragilis) was 2 µg/mL (≈ 6.34 µM) and the MIC90 (Yersinia sp.) was 0.5 µg/mL (≈ 1.59 µM). The MIC90 (Providencia stuartii) was 2 µg/mL (≈ 6.34 µM), the MIC (Escherichia coli [10]) was 0.25 µg/mL (≈ 0.793 µM) and the MIC90 (Haemophilus influenzae) was 2 µg/mL (≈ 6.34 µM). The MIC (Pseudomonas aeruginosa [11]) was 0.5 µg/mL (≈ 1.59 µM), the MIC (Enterococcus faecalis [12]) was 4 µg/mL (≈ 12.7 µM) and the MIC90 (Listeria monocytogenes) was 0.5 µg/mL (≈ 1.59 µM). For the same compound, the MIC90 (Streptococcus pneumoniae) was 0.06 µg/mL (≈ 0.19 µM), the MIC (Staphylococcus aureus [13]) was 1 µg/mL (≈ 3.17 µM) and the MIC90 (Enterococcus faecium) was greater than 64 µg/mL. The MIC90 (Staphylococcus aureus [14]) was 0.0075 µg/mL (≈ 0.0238 µM), the MIC (Escherichia coli [15]) was 0.5 µg/mL (≈ 1.59 µM) and the MIC (Pseudomonas aeruginosa [16]) was greater than 32 µg/mL. It also gave an MIC90 (Proteus mirabilis) of 1 µg/mL (≈ 3.17 µM), an MIC (Escherichia coli [17]) of 0.5 µg/mL (≈ 1.59 µM) and an MIC90 [18] of 16 µg/mL (≈ 50.7 µM). For the same compound, the MIC90 (Aeromonas sp.) was 1 µg/mL (≈ 3.17 µM), the MIC90 [19] was greater than 64 µg/mL and the MIC90 (Enterococcus faecalis [20]) was 8 µg/mL (≈ 25.4 µM). It also gave an MIC (Escherichia coli [21]) of 0.25 µg/mL (≈ 0.793 µM) and an MIC90 (Proteus vulgaris) of 2 µg/mL (≈ 6.34 µM).
